Source: paper PMC7265429, “Characterization of a new small-molecule inhibitor of HDAC6 in glioblastoma” (Cell Death & Disease, 2020)

Tested on: GNS166 cells
Assay: Microarray whole-transcriptome gene expression analysis
Format: cell-based, human
Details: DMSO vs 5 µM SAHA, upregulated genes
Procedure: Whole-transcriptome analysis was performed from 300 ng of RNA using HuGene-2_0-st-v1 expression array (Affymetrix), which covers 48,226 transcripts. Raw data were first checked for quality purposes through the Affymetrix® Expression Console™ Software v1.4.1 and TAC software v4.0. Then, data were normalized using the Robust Multi-array Average (RMA) and analyzed by Limma tool. Probesets with FDR-corrected p-values smaller than 0.05 were selected. Functional enrichment on Gene Ontology (GO) biological processes was performed on a smaller subset of the differentially expressed genes (corrected p-value < 0.001) by means of Broad Institute GSEA. […] The data that support this study have been deposited in NCBI´s Gene Expression Omnibus and are accessible through GEO series accession number GSE143887.

O=C(CCCCCCC(=O)Nc1ccccc1)NO [SAHA, Suberoylanilide hydroxamic acid]
logFC NMUR2 (transcript TC0500012531.hg.1): 2.3 | logFC PIM1 (transcript TC0600007862.hg.1): 1.267 | logFC BCKDHB (transcript TC0600008632.hg.1): 0.8913 | logFC SLC16A10 (transcript TC0600009143.hg.1): 1.06 | logFC TBPL1 (transcript TC0600009508.hg.1): 0.8103 | logFC STK38 (transcript TC0600011661.hg.1): 0.8577 | logFC SOGA3 (transcript TC0600013119.hg.1): 1.659 | logFC STX7 (transcript TC0600013193.hg.1): 1.104 | logFC CYB5R4 (transcript TC0600014148.hg.1): 0.9356 | logFC ARL4A (transcript TC0700006737.hg.1): 1.551 | logFC AHR (transcript TC0700006795.hg.1): 1.0742 | logFC C7orf57 (transcript TC0700007475.hg.1): 1.163 | logFC PRKAR2B (transcript TC0700008745.hg.1): 1.383 | logFC ANKRD7 (transcript TC0700008898.hg.1): 1.335 | logFC SND1 (transcript TC0700009020.hg.1): 0.9855 | logFC FAM71F1 (transcript TC0700009060.hg.1): 1.462 | logFC DGKB (transcript TC0700010327.hg.1): 0.979 | logFC TMEM60 (transcript TC0700011601.hg.1): 0.8857 | logFC FAM3C (transcript TC0700012427.hg.1): 0.9259 | logFC IQUB (transcript TC0700012456.hg.1): 1.539 | logFC RASA4 (transcript TC0700013603.hg.1): 1.334 | logFC KIAA1456 (transcript TC0800006802.hg.1): 1.838 | logFC PDGFRL (transcript TC0800006873.hg.1): 1.146 | logFC PLAT (transcript TC0800010275.hg.1): 1.063 | logFC PAG1 (transcript TC0800010926.hg.1): 1.472 | logFC EXT1 (transcript TC0800011579.hg.1): 1.229 | logFC SLC26A7 (transcript TC0800012325.hg.1): 0.8985 | logFC PSAT1 (transcript TC0900007667.hg.1): 0.8807 | logFC MLLT3 (transcript TC0900009679.hg.1): 1.79 | logFC APBA1 (transcript TC0900010350.hg.1): 1.1769 | logFC NR6A1 (transcript TC0900011501.hg.1): 1.227 | logFC ALDH1A1 (transcript TC0900012245.hg.1): 1.351 | logFC CDC14B (transcript TC0900012256.hg.1): 1.18 | logFC BAMBI (transcript TC1000007132.hg.1): 1.194 | logFC DNAJC1 (transcript TC1000010006.hg.1): 1.349 | logFC ZNF215 (transcript TC1100006749.hg.1): 1.332 | logFC GRIA4 (transcript TC1100008948.hg.1): 1.769 | logFC C11orf88 (transcript TC1100009023.hg.1): 1.468 | logFC SIK2 (transcript TC1100009026.hg.1): 0.9192 | logFC NRGN (transcript TC1100009398.hg.1): 0.9705 | logFC FZD4 (transcript TC1100011867.hg.1): 1.1951 | logFC CCDC82 (transcript TC1100012052.hg.1): 0.8598 | logFC IL18 (transcript TC1100012318.hg.1): 1.544 | logFC CDON (transcript TC1100012722.hg.1): 2.237 | logFC FAM89B (transcript TC1100013043.hg.1): 0.8784 | logFC IGF2 (transcript TC1100013131.hg.1): 1.158 | logFC C12orf60 (transcript TC1200006948.hg.1): 1.183 | logFC ARNTL2 (transcript TC1200007147.hg.1): 1.2211 | logFC GDF11 (transcript TC1200007809.hg.1): 1.519 | logFC TMTC2 (transcript TC1200008322.hg.1): 1.0601 | logFC TMTC3 (transcript TC1200008373.hg.1): 1.159 | logFC TXNRD1 (transcript TC1200008675.hg.1): 0.8282 | logFC P2RX7 (transcript TC1200009157.hg.1): 1.148 | logFC RHEBL1 (transcript TC1200010612.hg.1): 1.826 | logFC ATP2B1 (transcript TC1200011474.hg.1): 1.035 | logFC LRRC63 (transcript TC1300007085.hg.1): 1.37 | logFC SLC46A3 (transcript TC1300008468.hg.1): 1.1281 | logFC UBL3 (transcript TC1300008497.hg.1): 0.9113 | logFC LCP1 (transcript TC1300008840.hg.1): 1.339 | logFC KLF12 (transcript TC1300009249.hg.1): 1.022 | logFC SLITRK1 (transcript TC1300009376.hg.1): 1.004 | logFC FOXG1 (transcript TC1400006791.hg.1): 0.91 | logFC SOCS4 (transcript TC1400007221.hg.1): 0.9561 | logFC ARID4A (transcript TC1400007307.hg.1): 0.9227 | logFC SLC7A8 (transcript TC1400008705.hg.1): 1.877 | logFC GCH1 (transcript TC1400009239.hg.1): 1.069 | logFC KLHL28 (transcript TC1400010737.hg.1): 1.205 | logFC TMOD2 (transcript TC1500007238.hg.1): 1.505 | logFC LRRC49 (transcript TC1500007735.hg.1): 1.1742 | logFC DENND4A (transcript TC1500009804.hg.1): 1.04 | logFC UACA (transcript TC1500009921.hg.1): 1.398 | logFC RGMA (transcript TC1500010501.hg.1): 0.8186 | logFC YPEL3 (transcript TC1600009952.hg.1): 1.349 | logFC ACSM3 (transcript TC1600011362.hg.1): 1.318 | logFC NLK (transcript TC1700007344.hg.1): 1.006 | logFC NGFR (transcript TC1700008209.hg.1): 1.322 | logFC DYNLL2 (transcript TC1700008418.hg.1): 0.9396 | logFC MYO1D (transcript TC1700010358.hg.1): 1.521 | logFC MMD (transcript TC1700011181.hg.1): 0.9396 | logFC CBX4 (transcript TC1700011953.hg.1): 1.178 | logFC UNC13A (transcript TC1900009984.hg.1): 2.076 | logFC KIAA1683 (transcript TC1900010008.hg.1): 1.003 | logFC DIRAS1 (transcript TC1900011842.hg.1): 0.9114 | logFC TGM2 (transcript TC2000009058.hg.1): 1.058 | logFC KCNQ2 (transcript TC2000009809.hg.1): 1.266 | logFC SRXN1 (transcript TC2000009960.hg.1): 0.9857 | logFC SH3BGR (transcript TC2100007166.hg.1): 0.8256 | logFC ADAMTS1 (transcript TC2100007821.hg.1): 1.343 | logFC TIMP3 (transcript TC2200007150.hg.1): 0.905
